Measured values from article PMC9519552, “Activation of the human insulin receptor by non-insulin-related peptides” (Nature Communications, 2022).
Read-outs that look alike come from different tables or passages of the source. Positions of bridges follow the written chain, without caps; N, C: chain ends. Residues, ends and D or L forms follow the SMILES beside them.

Columns and labels:
[1] = molecular target: T1, human IR-A (holoIR-A) (Homo sapiens, UniProt P06213); assay: holoIR-A competitive radioligand binding assay (scintillation proximity assay)
T1 construct: expressed in transfected cells; host or cells: HEK293 (ATCC #CRL-1573), stably transfected; membrane preparation
Description: Cellular membranes were prepared from human embryonic kidney (HEK293; ATCC #CRL-1573) cells stably transfected with cDNA corresponding to human IR-A (holoIR-A) plus a C-terminal C9 tag ([…]) inserted within a pcDNA3.1 plasmid (Invitrogen), with positive clones selected with 800 μg mL^−1 neomycin and confirmed by Western Blot. Frozen cell pellets were thawed in ice-cold homogenization/resuspension buffer (50 mM Tris-HCl, pH 7.5) containing one cOmplete® protease inhibitor tablet with EDTA (Roche Diagnostics) per 50 mL buffer. Cells were homogenized with an overhead motor-driven Teflon-glass homogenizer using 15–20 strokes, followed by centrifugation at 1100 × g for 10 min at 4 °C. The supernatant was saved on ice, pellets were homogenized as before, and centrifuged at 1100 × g for 10 min at 4 °C. Both supernatants were combined and subsequently centrifuged at 35,000 × g for 60 min at 4 °C. The pellet was resuspended in buffer (4 to 5 mL g^−1 of starting cell paste) containing protease inhibitors and quick frozen in liquid nitrogen prior to storage at −80 °C. Protein concentration was determined using a BCA kit (Thermo Scientific) with bovine serum albumin (BSA) as standard.
The assays were performed with a scintillation proximity assay (SPA) method using polyvinyltoluene (PVT) wheat germ agglutinin-coupled SPA beads (Perkin Elmer). Assay buffer containing 50 mM Tris-HCl (pH 7.5), 150 mM NaCl, 0.1% w/v fatty-acid free BSA was used for all compound testing and reagent preparation. Ten-point concentration response curves with three-fold serial dilutions of test samples or controls were prepared in the assay buffer. […] Plates were sealed and shaken for 1 min on a plate shaker. Following a 10-h incubation and bead settling period at room temperature, radioactivity was determined using a MicroBeta Trilux scintillation counter (Perkin Elmer) and expressed as counts per minute (CPM). […] Samples were tested in three independent assay runs on three different days.
All test sample concentration responses were normalized to the control response and calculated as a percent of the maximal response after correcting for nonspecific binding as shown below: %Specific Inhibition=100%−[(CPM−MIN)/(MAX−MIN)×100%]
Percent specific binding (y-axis) was plotted vs log concentration of compound (x-axis) using Prism Version 9.3.1 (GraphPad Software). Individual measurements are provided as Source Data.

[2] = molecular target: T2, human holoIR-A over-expressed in HEK293 cells (Homo sapiens, UniProt P06213); assay: Inhibition of hIR phosphorylation by peptides, co-incubated with BHI at its EC50 (ELISA); type: cell-based; details: for hIRA Phosph IC50 Run 1 / hIRA Phosph IC50 Run 2 / hIRA Phosph IC50 Run 3: inhibition of insulin-stimulated phosphorylation; for hIRA Phosph IC50 Run 1: BHI at its EC50, run 1; for hIRA Phosph IC50 Run 2: BHI at its EC50, run 2; for hIRA Phosph IC50 Run 3: BHI at its EC50, run 3; for IC50: read-out: hIRA Phosph IC50 Mean
T2 construct: expressed in transfected cells; host or cells: HEK293, stably transfected
Description: Phosphorylation was quantified using an ELISA technique. Ninety-six well, flat-bottom microplates (Greiner Bio-One) were pre-coated with 2 µg mL^−1 anti-C9 monoclonal antibody (Rho 1D4; University of British Columbia)[27] in 20 mM sodium carbonate, pH 9.6, at 4 °C for overnight prior to the assay. On the assay day, plates were washed 3× with 0.1% Tween in 50 mM Tris Buffer Saline, pH 7.5 (TBST), and then blocked for greater than 1 h at room temperature (RT) with 1% BSA (Sigma) in TBST.
Stably transfected HEK293 cells over-expressing human holoIR-A containing a C-terminal C9 epitope tag ([…]), were plated at 6 × 10^4 cells per well serum-starved using 0.1% BSA in DMEM (Gibco) for overnight at standard tissue culture condition. […] After a 15-min incubation in lysis buffer at 4 °C, the lysate was transferred to anti-C9 antibody coated capture plate (Rho 1D4; University of British Columbia)[27]. […] After a 1 h incubation at room temperature, the secondary antibody was removed by washing 3× with TBST. Signal detection occurred with the addition of TMB, an HRP substrate (Pierce). After 5–10 min, the reaction was stopped by adding an equal volume of 2 M H2SO4, and the absorbance readings at 450 nm (A450) were recorded using a Envision plate reader (PerkinElmer). Samples were tested in three independent assay runs on three different days.
Percent specific response (y-axis) was plotted versus the log concentration of compound (x-axis) using Prism Version 9.3.1 (GraphPad Software). Individual measurements are provided as Source Data.

[3] = IM172N22(-) mutant peptide set, run 1, read-out: hIRA Binding Ki Run 1
[4] = IM172N22(-) mutant peptide set, run 2, read-out: hIRA Binding Ki Run 2
[5] = IM172N22(-) mutant peptide set, run 3, read-out: hIRA Binding Ki Run 3
[6] = IM172N22(-) mutant peptide set, mean of 3 runs, read-out: hIRA Binding Ki Mean

T2 sequence (P06213 28-1370 isoform P06213-2 limits assumed): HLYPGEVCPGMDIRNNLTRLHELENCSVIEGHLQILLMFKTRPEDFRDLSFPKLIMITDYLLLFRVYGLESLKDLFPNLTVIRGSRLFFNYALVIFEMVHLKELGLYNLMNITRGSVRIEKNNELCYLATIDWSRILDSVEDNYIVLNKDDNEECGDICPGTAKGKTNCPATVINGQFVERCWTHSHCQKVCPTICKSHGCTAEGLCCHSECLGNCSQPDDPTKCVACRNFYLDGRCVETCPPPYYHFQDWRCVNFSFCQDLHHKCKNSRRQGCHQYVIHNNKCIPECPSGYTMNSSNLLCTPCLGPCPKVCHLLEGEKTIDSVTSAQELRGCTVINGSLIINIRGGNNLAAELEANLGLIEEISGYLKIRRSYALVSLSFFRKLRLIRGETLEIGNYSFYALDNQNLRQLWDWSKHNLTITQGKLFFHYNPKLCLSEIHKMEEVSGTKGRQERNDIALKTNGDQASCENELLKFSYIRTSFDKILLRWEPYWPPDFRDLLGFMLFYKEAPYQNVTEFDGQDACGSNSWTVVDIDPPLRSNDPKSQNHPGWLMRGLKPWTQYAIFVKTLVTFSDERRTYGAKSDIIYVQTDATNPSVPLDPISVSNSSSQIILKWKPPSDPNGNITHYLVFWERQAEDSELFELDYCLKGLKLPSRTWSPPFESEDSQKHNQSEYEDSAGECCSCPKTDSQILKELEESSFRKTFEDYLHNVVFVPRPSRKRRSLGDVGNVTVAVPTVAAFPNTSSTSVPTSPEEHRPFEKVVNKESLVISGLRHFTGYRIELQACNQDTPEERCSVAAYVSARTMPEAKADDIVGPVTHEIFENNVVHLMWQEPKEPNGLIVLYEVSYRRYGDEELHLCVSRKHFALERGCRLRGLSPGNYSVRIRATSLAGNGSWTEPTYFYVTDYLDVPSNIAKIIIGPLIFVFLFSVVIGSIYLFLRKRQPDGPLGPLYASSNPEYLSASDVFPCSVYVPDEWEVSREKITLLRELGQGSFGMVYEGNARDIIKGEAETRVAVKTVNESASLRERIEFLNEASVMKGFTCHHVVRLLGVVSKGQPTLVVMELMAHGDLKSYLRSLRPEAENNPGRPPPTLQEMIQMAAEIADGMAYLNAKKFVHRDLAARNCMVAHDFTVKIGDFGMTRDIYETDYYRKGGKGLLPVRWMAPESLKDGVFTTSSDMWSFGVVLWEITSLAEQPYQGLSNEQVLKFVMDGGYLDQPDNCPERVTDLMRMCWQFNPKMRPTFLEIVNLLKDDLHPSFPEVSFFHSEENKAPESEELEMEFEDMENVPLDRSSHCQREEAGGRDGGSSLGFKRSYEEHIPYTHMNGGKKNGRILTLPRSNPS
T2 sequence (P06213 763-1382 partner limits assumed): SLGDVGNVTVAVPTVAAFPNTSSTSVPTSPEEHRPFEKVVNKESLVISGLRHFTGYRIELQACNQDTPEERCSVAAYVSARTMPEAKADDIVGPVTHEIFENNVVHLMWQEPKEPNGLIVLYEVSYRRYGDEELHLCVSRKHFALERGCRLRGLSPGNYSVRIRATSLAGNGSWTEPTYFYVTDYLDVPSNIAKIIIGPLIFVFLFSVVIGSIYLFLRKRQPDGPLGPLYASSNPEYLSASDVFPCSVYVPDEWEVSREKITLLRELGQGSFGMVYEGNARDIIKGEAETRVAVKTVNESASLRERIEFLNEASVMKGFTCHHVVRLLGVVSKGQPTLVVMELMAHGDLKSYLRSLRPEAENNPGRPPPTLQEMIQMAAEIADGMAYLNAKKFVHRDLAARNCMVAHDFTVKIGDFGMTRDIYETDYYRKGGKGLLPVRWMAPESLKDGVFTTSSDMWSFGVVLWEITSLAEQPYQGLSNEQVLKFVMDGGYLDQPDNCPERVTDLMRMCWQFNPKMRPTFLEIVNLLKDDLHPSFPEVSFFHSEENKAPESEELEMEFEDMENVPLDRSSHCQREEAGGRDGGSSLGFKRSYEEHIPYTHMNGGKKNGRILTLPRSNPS
T1 sequence (P06213 28-1370 isoform P06213-2 limits assumed): as the sequence (P06213 28-1370 isoform P06213-2 limits assumed) above
T1 sequence (P06213 763-1382 partner limits assumed): as the sequence (P06213 763-1382 partner limits assumed) above

Row | SMILES | Ki [1, 3] | Ki [1, 4] | Ki [1, 5] | Ki ([1]; read-out: hIRA Binding Ki Mean) | hIRA Phosph IC50 Run 1 [2] | hIRA Phosph IC50 Run 2 [2] | hIRA Phosph IC50 Run 3 [2] | IC50 [2] | Ki [1, 6] | reduction in ki for hIR-A on substitution ([1]; relative to control peptide IM172N22 devoid of N-terminal phenylacetylation)
1 | CC[C@H](C)[C@H](NC(=O)[C@H](CCC(N)=O)NC(=O)[C@H](C)NC(=O)[C@H](Cc1c[nH]c2ccccc12)NC(=O)[C@H](CCC(=O)O)NC(=O)[C@H](CCC(=O)O)NC(=O)[C@H](CCC(=O)O)NC(=O)[C@H](CC(C)C)NC(=O)[C@H](CO)NC(C)=O)C(=O)N[C@@H](CCC(=O)O)C(=O)N[C@H]1CSSC[C@@H](C(=O)N2CCC[C@H]2C(=O)N2CCC[C@H]2C(=O)N[C@@H](CO)C(=O)N[C@@H](CCC(=O)O)C(=O)N[C@@H](CO)C(N)=O)NC(=O)[C@H](CCCNC(=N)N)NC(=O)CNC(=O)[C@H](Cc2ccc(O)cc2)NC(=O)[C@H](C(C)C)NC(=O)[C@H](CCC(=O)O)NC1=O [IM172N22-] (Ac-SLEEEWAQIECEVYGRCPPSES-NH2; disulfide 11-17) | 0.00707 µM | 0.00806 µM | 0.00936 µM | 0.00816 µM | 0.085 µM | 0.076 µM | 0.08 µM | 0.0803 µM | – | –
2 | CC[C@H](C)[C@H](NC(=O)[C@H](CCC(N)=O)NC(=O)[C@H](C)NC(=O)[C@H](Cc1c[nH]c2ccccc12)NC(=O)[C@H](CCC(=O)O)NC(=O)[C@H](CCC(=O)O)NC(=O)[C@H](C)NC(=O)[C@H](CC(C)C)NC(=O)[C@H](CO)NC(C)=O)C(=O)N[C@@H](CCC(=O)O)C(=O)N[C@H]1CSSC[C@@H](C(=O)N2CCC[C@H]2C(=O)N2CCC[C@H]2C(=O)N[C@@H](CO)C(=O)N[C@@H](CCC(=O)O)C(=O)N[C@@H](CO)C(N)=O)NC(=O)[C@H](CCCNC(=N)N)NC(=O)CNC(=O)[C@H](Cc2ccc(O)cc2)NC(=O)[C@H](C(C)C)NC(=O)[C@H](CCC(=O)O)NC1=O [Peptide E3A] (Ac-SLAEEWAQIECEVYGRCPPSES-NH2; disulfide 11-17) | 0.335 µM | 0.353 µM | 0.337 µM | – | 1.212 µM | 1.189 µM | 1.302 µM | 1.23 µM | 0.342 µM | –
3 | CC[C@H](C)[C@H](NC(=O)[C@H](CCC(N)=O)NC(=O)[C@H](C)NC(=O)[C@H](Cc1c[nH]c2ccccc12)NC(=O)[C@H](CCC(=O)O)NC(=O)[C@H](CCC(=O)O)NC(=O)[C@H](CCCNC(=N)N)NC(=O)[C@H](CC(C)C)NC(=O)[C@H](CO)NC(C)=O)C(=O)N[C@@H](CCC(=O)O)C(=O)N[C@H]1CSSC[C@@H](C(=O)N2CCC[C@H]2C(=O)N2CCC[C@H]2C(=O)N[C@@H](CO)C(=O)N[C@@H](CCC(=O)O)C(=O)N[C@@H](CO)C(N)=O)NC(=O)[C@H](CCCNC(=N)N)NC(=O)CNC(=O)[C@H](Cc2ccc(O)cc2)NC(=O)[C@H](C(C)C)NC(=O)[C@H](CCC(=O)O)NC1=O [Peptide E3R] (Ac-SLREEWAQIECEVYGRCPPSES-NH2; disulfide 11-17) | > 1.21 µM | > 4.16 µM | > 4.24 µM | – | >10 µM | >10 µM | >10 µM | > 10 µM | > 4.24 µM | –
4 | CC[C@H](C)[C@H](NC(=O)[C@H](CCC(N)=O)NC(=O)[C@H](C)NC(=O)[C@H](Cc1c[nH]c2ccccc12)NC(=O)[C@H](CCC(=O)O)NC(=O)[C@H](C)NC(=O)[C@H](CCC(=O)O)NC(=O)[C@H](CC(C)C)NC(=O)[C@H](CO)NC(C)=O)C(=O)N[C@@H](CCC(=O)O)C(=O)N[C@H]1CSSC[C@@H](C(=O)N2CCC[C@H]2C(=O)N2CCC[C@H]2C(=O)N[C@@H](CO)C(=O)N[C@@H](CCC(=O)O)C(=O)N[C@@H](CO)C(N)=O)NC(=O)[C@H](CCCNC(=N)N)NC(=O)CNC(=O)[C@H](Cc2ccc(O)cc2)NC(=O)[C@H](C(C)C)NC(=O)[C@H](CCC(=O)O)NC1=O [Peptide E4A] (Ac-SLEAEWAQIECEVYGRCPPSES-NH2; disulfide 11-17) | 0.029 µM | 0.02 µM | 0.0275 µM | – | 0.241 µM | 0.205 µM | 0.206 µM | 0.217 µM | 0.0255 µM | lower than 5 fold
5 | CC[C@H](C)[C@H](NC(=O)[C@H](CCC(N)=O)NC(=O)[C@H](C)NC(=O)[C@H](Cc1c[nH]c2ccccc12)NC(=O)[C@H](CCC(=O)O)NC(=O)[C@H](CCCNC(=N)N)NC(=O)[C@H](CCC(=O)O)NC(=O)[C@H](CC(C)C)NC(=O)[C@H](CO)NC(C)=O)C(=O)N[C@@H](CCC(=O)O)C(=O)N[C@H]1CSSC[C@@H](C(=O)N2CCC[C@H]2C(=O)N2CCC[C@H]2C(=O)N[C@@H](CO)C(=O)N[C@@H](CCC(=O)O)C(=O)N[C@@H](CO)C(N)=O)NC(=O)[C@H](CCCNC(=N)N)NC(=O)CNC(=O)[C@H](Cc2ccc(O)cc2)NC(=O)[C@H](C(C)C)NC(=O)[C@H](CCC(=O)O)NC1=O [Peptide E4R] (Ac-SLEREWAQIECEVYGRCPPSES-NH2; disulfide 11-17) | 0.0424 µM | 0.0357 µM | 0.0359 µM | – | 0.367 µM | 0.259 µM | 0.348 µM | 0.325 µM | 0.038 µM | –
6 | CC[C@H](C)[C@H](NC(=O)[C@H](CCC(N)=O)NC(=O)[C@H](C)NC(=O)[C@H](Cc1c[nH]c2ccccc12)NC(=O)[C@H](C)NC(=O)[C@H](CCC(=O)O)NC(=O)[C@H](CCC(=O)O)NC(=O)[C@H](CC(C)C)NC(=O)[C@H](CO)NC(C)=O)C(=O)N[C@@H](CCC(=O)O)C(=O)N[C@H]1CSSC[C@@H](C(=O)N2CCC[C@H]2C(=O)N2CCC[C@H]2C(=O)N[C@@H](CO)C(=O)N[C@@H](CCC(=O)O)C(=O)N[C@@H](CO)C(N)=O)NC(=O)[C@H](CCCNC(=N)N)NC(=O)CNC(=O)[C@H](Cc2ccc(O)cc2)NC(=O)[C@H](C(C)C)NC(=O)[C@H](CCC(=O)O)NC1=O [Peptide E5A] (Ac-SLEEAWAQIECEVYGRCPPSES-NH2; disulfide 11-17) | 0.107 µM | 0.098 µM | 0.0894 µM | – | 0.316 µM | 0.264 µM | 0.378 µM | 0.319 µM | 0.098 µM | –
7 | CC[C@H](C)[C@H](NC(=O)[C@H](CCC(N)=O)NC(=O)[C@H](C)NC(=O)[C@H](Cc1c[nH]c2ccccc12)NC(=O)[C@H](CCCNC(=N)N)NC(=O)[C@H](CCC(=O)O)NC(=O)[C@H](CCC(=O)O)NC(=O)[C@H](CC(C)C)NC(=O)[C@H](CO)NC(C)=O)C(=O)N[C@@H](CCC(=O)O)C(=O)N[C@H]1CSSC[C@@H](C(=O)N2CCC[C@H]2C(=O)N2CCC[C@H]2C(=O)N[C@@H](CO)C(=O)N[C@@H](CCC(=O)O)C(=O)N[C@@H](CO)C(N)=O)NC(=O)[C@H](CCCNC(=N)N)NC(=O)CNC(=O)[C@H](Cc2ccc(O)cc2)NC(=O)[C@H](C(C)C)NC(=O)[C@H](CCC(=O)O)NC1=O [Peptide E5R] (Ac-SLEERWAQIECEVYGRCPPSES-NH2; disulfide 11-17) | 0.62 µM | 0.541 µM | 0.5 µM | – | 1.351 µM | 1.34 µM | 1.323 µM | 1.34 µM | 0.554 µM | –
